Counter-ions that a name gives are not always drawn.
Experiments:
[1] = molecular target: T1, purified recombinant form of human BACE1 aspartyl protease (Homo sapiens, UniProt P56817); experiment: in vitro inhibition of β-secretase (BACE1) activity, FRET cleavage of fluorogenic peptide substrate FS1; assay type: biochemical; conditions: purified enzyme 10 nM, substrate FS1 5 μM, sodium acetate buffer pH 4.5, 37° C., 45 minutes; read-out: IC50 (concentration of product giving 50% inhibition of the enzyme activity)
T1 construct: hexahistidine (C); made in house; host or cells: Drosophila cells
Procedure: The tests consisted in measuring the in vitro inhibition of the β-secretase activity by the compounds of the invention.
The β-secretase activity measured corresponds to that of a purified recombinant form of human BACE1 aspartyl protease (the latter comprising a hexahistidine tag at the C-terminal position) produced by expression in Drosophila cells. The purified enzyme is conditioned in TRIS buffer (18 mM) at pH 7.5 containing NaCl (0.45M), MnCl2 (0.9 mM), CaCl2 (0.9 mM), α-D-methylmannoside and 10% glycerol, and stored at −80° C. until use.
The BACE1 activity is measured from the cleavage of a fluorogenic peptide substrate, known as FS1, described originally by Ermolieff et Coll. (2000, Biochemistry, 39, 12450-12456), and based on the principle of fluorescence resonance energy transfer (FRET); the cleavage of the FS1 peptide is measured from the increase of the fluorescent signal emitted by the EDANS (or 5-[(2-aminoethyl)amino]naphthalene-[…]) group. The test is carried out in a 96-well microplate in order to determine the inhibition of the enzyme activity by the products of the invention. The substrate FS1 is solubilized to a concentration of 1 mM in 100% dimethylsulfoxide (DMSO) and stored at −20° C. until use. The dilutions of the products to be tested are prepared in DMSO starting from a 10 mM stock solution. The products of the invention, at final concentrations of 0.003 to 10 μM are incubated at 37° C. with the substrate FS1 (final concentration of 5 μM) and the purified enzyme (final concentration of 10 nM) in the sodium acetate buffer (0.1M), pH 4.5 containing 0.02% of CHAPS detergent and 200 mM NaCl for 45 minutes. […] When the incubation is finished, the fluorescence is measured in a spectrofluorimeter, at the excitation wavelength of 355 nm and emission wavelength of 509 nm. For each product concentration tested, the fluorescent signal is compared to the maximum signal obtained when the substrate FS1 is only incubated with the enzyme.
The inhibitory activity of the products of the invention is then evaluated by the measurement of the IC50 (concentration of product giving 50% inhibition of the enzyme activity) using a non-linear regression analysis (computer application software XLfit, IDBS™).

T1 sequence (P56817 46-501): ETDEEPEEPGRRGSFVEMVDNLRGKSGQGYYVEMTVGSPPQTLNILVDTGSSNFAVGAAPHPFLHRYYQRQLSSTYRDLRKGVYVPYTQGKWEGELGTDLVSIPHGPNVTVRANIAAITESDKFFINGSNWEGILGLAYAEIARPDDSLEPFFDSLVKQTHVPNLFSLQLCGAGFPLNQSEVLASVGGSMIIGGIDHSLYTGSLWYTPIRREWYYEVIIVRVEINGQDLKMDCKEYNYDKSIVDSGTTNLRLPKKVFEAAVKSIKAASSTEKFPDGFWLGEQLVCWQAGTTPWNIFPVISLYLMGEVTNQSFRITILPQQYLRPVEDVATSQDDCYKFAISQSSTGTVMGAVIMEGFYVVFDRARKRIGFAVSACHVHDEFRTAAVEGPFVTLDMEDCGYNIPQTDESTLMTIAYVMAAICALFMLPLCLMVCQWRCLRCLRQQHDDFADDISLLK

| SMILES | melting point [°C] | IC50 [1] [nM] |
| --- | --- | --- |
| CCCC(CCC)N1Cc2c(C(=O)N[C@@H](Cc3cc(F)cc(F)c3)[C@H](O)CNC3(c4cccc(C(F)(F)F)c4)CC3)cc(N(C)S(C)(=O)=O)cc2C1=O.Cl | 194 | – |
| CCCC(CCC)N1CCc2c(C(=O)N[C@@H](Cc3cc(F)cc(F)c3)[C@H](O)CNC3(c4cccc(C(F)(F)F)c4)CC3)cc(C(F)(F)F)cc2C1=O.Cl | 196 | – |
| CCCC(CCC)N1Cc2c(C(=O)N[C@@H](Cc3ccccc3)[C@H](O)CNCc3cccc(C(F)(F)F)c3)cccc2C1=O [Compound 1, N-[(1S,2R)-1-benzyl-2-hydroxy-3-{[3-(trifluoromethyl)benzyl]amino}propyl]-1-oxo-2-(1-propylbutyl)isoindoline-4-carboxamide hydrochloride (1:1)] | – | 770 |
| CCCC(CCC)N1CCc2c(C(=O)N[C@@H](Cc3cc(F)cc(F)c3)[C@H](O)CNC3(c4cccc(C(F)(F)F)c4)CC3)cc(N(C)S(C)(=O)=O)cc2C1=O [Compound 9, N-[(1S,2R)-1-(3,5-difluorobenzyl)-2-hydroxy-3-({1-[3-(trifluoromethyl)phenyl]cyclopropyl}amino)propyl]-7-[methyl(methylsulfonyl)amino]-1-oxo-2-(1-propylbutyl)-1,2,3,4-tetrahydroisoquinoline-5-carboxamide hydrochloride (1:1)] | – | 48 |
| CCCC(CCC)N1CCc2c(C(=O)N[C@@H](Cc3cc(F)cc(F)c3)[C@H](O)CNC3(c4cccc(C(F)(F)F)c4)CC3)cc(-c3cccc(C#N)c3)cc2C1=O [Compound 16, N-[(1S,2R)-1-(3,5-difluorobenzyl)-2-hydroxy-3-({1-[3-(trifluoromethyl)phenyl]cyclopropyl}amino)propyl]-7-(3-cyanophenyl)-1-oxo-2-(1-propylbutyl)-1,2,3,4-tetrahydroisoquinoline-5-carboxamide hydrochloride (1:1)] | – | 390 |
| CCCC(CCC)N1CCc2c(C(=O)N[C@@H](Cc3cc(F)cc(F)c3)[C@H](O)CNC3(c4cccc(C(F)(F)F)c4)CC3)cc(-c3ccccc3C#N)cc2C1=O [Compound 17, N-[(1S,2R)-1-(3,5-difluorobenzyl)-2-hydroxy-3-({1-[3-(trifluoromethyl)phenyl]cyclopropyl}amino)propyl]-7-(2-cyanophenyl)-1-oxo-2-(1-propylbutyl)-1,2,3,4-tetrahydroisoquinoline-5-carboxamide hydrochloride (1:1)] | – | 630 |

Other lines, results leading:

| melting point [°C] | IC50 [1] [nM] | SMILES |
| --- | --- | --- |
| 157 | – | CC(c1ccc(F)cc1)N1CCc2c(C(=O)N[C@@H](Cc3cc(F)cc(F)c3)[C@H](O)CNC3(c4cccc(C(F)(F)F)c4)CC3)cccc2C1=O.Cl (some centres unmarked) |
| 174 | – | CCCC(CCC)N1CCc2c(C(=O)N[C@@H](Cc3ccccc3)[C@H](O)CNC3(c4cccc(C(F)(F)F)c4)CC3)cccc2C1=O.Cl |
| 172 | – | CCCC(CCC)N1CCc2c(C(=O)N[C@@H](Cc3cc(F)cc(F)c3)[C@H](O)CNC3(c4cccc(C(F)(F)F)c4)CC3)cccc2C1=O.Cl |
| 178 | – | Cl.O=C(N[C@@H](Cc1cc(F)cc(F)c1)[C@H](O)CNC1(c2cccc(C(F)(F)F)c2)CC1)c1cccc2c1CCN(Cc1ccccc1)C2=O |
| 165 | – | CCCCCN1CCc2c(C(=O)N[C@@H](Cc3cc(F)cc(F)c3)[C@H](O)CNC3(c4cccc(C(F)(F)F)c4)CC3)cccc2C1=O.Cl |

From patent US8372864B2, “1-oxo-isoindoline-4-carboxamide and 1-oxo-1,2,3,4-tetrahydroisoquinoline-5-carboxamide derivatives, preparation and therapeutic use thereof” (Sanofi, priority 2007, dated 2013)
